ChEMBL document CHEMBL1201862, “PubChem BioAssay data set” (2004)
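Assay format: 96-well plates, 48-hour exposure. GI50 is the concentration that inhibits growth by half.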 The source made the active and inactive calls. No stated cut-off is given here; in the data, active = GI50 up to about 1.1 µM and inactive = higher.

Columns and labels:
Experiment in all cases: NCI tumour cell line growth inhibition, 48 h
SK-MEL-2 = tested on: SK-MEL-2
IGROV-1 = tested on: IGROV-1
UO-31 = tested on: UO-31
OVCAR-5 = tested on: OVCAR-5
MOLT-4 = tested on: MOLT-4
SF-268 = tested on: SF-268
HOP-92 = tested on: HOP-92
SK-MEL-28 = tested on: SK-MEL-28
DU-145 = tested on: DU-145
COLO 205 = tested on: COLO 205
T47D = tested on: T47D
U-251 = tested on: U-251
SW-620 = tested on: SW-620
NCI-H23 = tested on: NCI-H23
HCT-116 = tested on: HCT-116
M14 = tested on: M14
Malme-3M = tested on: Malme-3M
MCF7 = tested on: MCF7
UACC-257 = tested on: UACC-257
TK-10 = tested on: TK-10

## O=C(NNC(=S)Nc1ccccc1)c1ccccc1Nc1ccccc1C(=O)NNC(=S)Nc1ccccc1
SK-MEL-2
  GI50: 19.6 µM (inactive)
IGROV-1
  GI50: 8.24 µM (inactive)
UO-31
  GI50: 17.7 µM (inactive)
OVCAR-5
  GI50: 16.8 µM (inactive)
MOLT-4
  GI50: 29.6 µM (inactive)
SF-268
  GI50: 17 µM (inactive)
HOP-92
  GI50: 8.53 µM (inactive)
SK-MEL-28
  GI50: 33 µM (inactive)
DU-145
  GI50: 23.3 µM (inactive)
COLO 205
  GI50: 22.1 µM (inactive)
T47D
  GI50: 27.7 µM (inactive)
U-251
  GI50: 19.5 µM (inactive)
SW-620
  GI50: 40.9 µM (inactive)
NCI-H23
  GI50: 18.9 µM (inactive)
HCT-116
  GI50: 17.7 µM (inactive)
M14
  GI50: 19 µM (inactive)
Malme-3M
  GI50: 19.8 µM (inactive)
MCF7
  GI50: 23.8 µM (inactive)
UACC-257
  GI50: 19.1 µM (inactive)
TK-10
  GI50: 25.3 µM (inactive)

## C1CN2CCNCCN(CCN1)CC2
SK-MEL-2
  GI50: > 100 µM (inactive)
IGROV-1
  GI50: > 100 µM (inactive)
UO-31
  GI50: > 100 µM (inactive)
OVCAR-5
  GI50: > 100 µM (inactive)
MOLT-4
  GI50: > 100 µM (inactive)
SF-268
  GI50: > 100 µM (inactive)
HOP-92
  GI50: > 100 µM (inactive)
SK-MEL-28
  GI50: > 100 µM (inactive)
DU-145
  GI50: > 100 µM (inactive)
COLO 205
  GI50: > 100 µM (inactive)
T47D
  GI50: > 100 µM (inactive)
U-251
  GI50: > 100 µM (inactive)
SW-620
  GI50: > 100 µM (inactive)
NCI-H23
  GI50: > 100 µM (inactive)
HCT-116
  GI50: > 100 µM (inactive)
M14
  GI50: > 100 µM (inactive)
Malme-3M
  GI50: > 100 µM (inactive)
MCF7
  GI50: > 100 µM (inactive)
UACC-257
  GI50: > 100 µM (inactive)
TK-10
  GI50: > 100 µM (inactive)

## CCC1(CC)N=C(C(F)(F)F)c2cc(C(=O)C(F)(F)F)c3ccccc3c2N1
SK-MEL-2
  GI50: 2.81 µM (inactive)
IGROV-1
  GI50: 3.76 µM (inactive)
UO-31
  GI50: 3.3 µM (inactive)
OVCAR-5
  GI50: 13.4 µM (inactive)
MOLT-4
  GI50: 2.82 µM (inactive)
SF-268
  GI50: 8.43 µM (inactive)
HOP-92
  GI50: 2.67 µM (inactive)
SK-MEL-28
  GI50: 8.26 µM (inactive)
DU-145
  GI50: 3.6 µM (inactive)
COLO 205
  GI50: 14 µM (inactive)
T47D
  GI50: 3.75 µM (inactive)
U-251
  GI50: 3.64 µM (inactive)
SW-620
  GI50: 4.78 µM (inactive)
NCI-H23
  GI50: 3.24 µM (inactive)
HCT-116
  GI50: 3.44 µM (inactive)
M14
  GI50: 4.89 µM (inactive)
Malme-3M
  GI50: 11.4 µM (inactive)
MCF7
  GI50: 3.77 µM (inactive)
UACC-257
  GI50: 7.8 µM (inactive)
TK-10
  GI50: 8.63 µM (inactive)

## COc1cccc(C2c3cc4c(cc3OC(C)(N3CCCC3)C2C)OCO4)c1 (stereo not given)
SK-MEL-2
  GI50: 2.45 µM (inactive)
IGROV-1
  GI50: 8.38 µM (inactive)
UO-31
  GI50: 13.1 µM (inactive)
OVCAR-5
  GI50: 7.73 µM (inactive)
MOLT-4
  GI50: 51.3 µM (inactive)
SF-268
  GI50: 27.4 µM (inactive)
HOP-92
  GI50: 10.2 µM (inactive)
SK-MEL-28
  GI50: 20.3 µM (inactive)
DU-145
  GI50: 20.7 µM (inactive)
COLO 205
  GI50: 11.4 µM (inactive)
T47D
  GI50: 11.2 µM (inactive)
U-251
  GI50: 7.59 µM (inactive)
SW-620
  GI50: 6.55 µM (inactive)
NCI-H23
  GI50: 20.5 µM (inactive)
HCT-116
  GI50: 7.62 µM (inactive)
M14
  GI50: 4.12 µM (inactive)
Malme-3M
  GI50: 11.6 µM (inactive)
MCF7
  GI50: 9.51 µM (inactive)
UACC-257
  GI50: 18.2 µM (inactive)
TK-10
  GI50: 10.9 µM (inactive)

## COc1cccc2c3ccccc3c3nc[nH]c3c12
SK-MEL-2
  GI50: 58.3 µM (inactive)
IGROV-1
  GI50: 41.4 µM (inactive)
UO-31
  GI50: 41.7 µM (inactive)
OVCAR-5
  GI50: 55.3 µM (inactive)
MOLT-4
  GI50: 9.08 µM (inactive)
SF-268
  GI50: 62.1 µM (inactive)
HOP-92
  GI50: 27.3 µM (inactive)
SK-MEL-28
  GI50: 19.7 µM (inactive)
DU-145
  GI50: 46.9 µM (inactive)
COLO 205
  GI50: 17.9 µM (inactive)
T47D
  GI50: > 50.4 µM (inactive)
U-251
  GI50: 14.7 µM (inactive)
SW-620
  GI50: 22.5 µM (inactive)
NCI-H23
  GI50: > 100 µM (inactive)
HCT-116
  GI50: 29.8 µM (inactive)
M14
  GI50: 28.6 µM (inactive)
Malme-3M
  GI50: 36.1 µM (inactive)
MCF7
  GI50: 47.4 µM (inactive)
UACC-257
  GI50: 23.6 µM (inactive)
TK-10
  GI50: 26.1 µM (inactive)

## CC(=O)O[C@H]1C(=O)[C@@]2(C)C(C(OC(=O)c3ccccc3)[C@]3(O)C[C@H](OC(=O)C(OC(=O)CCCC(=O)NCCCN(C)C)C(NC(=O)c4ccccc4)c4ccccc4)C(C)=C1C3(C)C)C1(OC(C)=O)COC1C[C@@H]2O (stereo not given in full)
SK-MEL-2
  GI50: < 0.01 µM (active)
IGROV-1
  GI50: 0.0138 µM (active)
UO-31
  GI50: 1.02 µM (active)
OVCAR-5
  GI50: < 0.0139 µM (active)
MOLT-4
  GI50: < 0.01 µM (active)
SF-268
  GI50: 0.0109 µM (active)
HOP-92
  GI50: 2.19 µM (inactive)
SK-MEL-28
  GI50: < 0.01 µM (active)
DU-145
  GI50: 0.0105 µM (active)
COLO 205
  GI50: < 0.01 µM (active)
T47D
  GI50: 0.149 µM (active)
U-251
  GI50: < 0.01 µM (active)
SW-620
  GI50: < 0.01 µM (active)
NCI-H23
  GI50: < 0.01 µM (active)
HCT-116
  GI50: < 0.01 µM (active)
M14
  GI50: < 0.01 µM (active)
Malme-3M
  GI50: < 0.01 µM (active)
MCF7
  GI50: < 0.01 µM (active)
UACC-257
  GI50: 0.0143 µM (active)
TK-10
  GI50: 0.0425 µM (active)

## Clc1ccc(COC(Cn2ccnc2)c2ccc(Cl)cc2Cl)cc1 (stereo not given) [ECONAZOLE NITRATE]
SK-MEL-2
  GI50: 15 µM (inactive)
IGROV-1
  GI50: 12.2 µM (inactive)
UO-31
  GI50: 3.41 µM (inactive)
OVCAR-5
  GI50: 14.5 µM (inactive)
MOLT-4
  GI50: 2.75 µM (inactive)
SF-268
  GI50: 14.7 µM (inactive)
HOP-92
  GI50: 11.8 µM (inactive)
SK-MEL-28
  GI50: 14.8 µM (inactive)
DU-145
  GI50: 14.4 µM (inactive)
COLO 205
  GI50: 8.28 µM (inactive)
T47D
  GI50: 5.42 µM (inactive)
U-251
  GI50: 12.6 µM (inactive)
SW-620
  GI50: 11.3 µM (inactive)
NCI-H23
  GI50: 13.2 µM (inactive)
HCT-116
  GI50: 6.67 µM (inactive)
M14
  GI50: 13 µM (inactive)
Malme-3M
  GI50: 16.4 µM (inactive)
MCF7
  GI50: 8.26 µM (inactive)
UACC-257
  GI50: 10.4 µM (inactive)
TK-10
  GI50: 11.4 µM (inactive)

## COc1ccc(C(=O)O[C@H]2CC[C@@]3(C)[C@@H]4CC[C@H]5[C@]6(O)C[C@H](O)[C@@]7(O)[C@@H](CN8C[C@@H](C)CC[C@H]8[C@@]7(C)O)[C@]6(O)C[C@@]53OC24O)cc1OC [VERATRIDINE]
SK-MEL-2
  GI50: > 100 µM (inactive)
IGROV-1
  GI50: > 100 µM (inactive)
UO-31
  GI50: > 100 µM (inactive)
OVCAR-5
  GI50: > 100 µM (inactive)
MOLT-4
  GI50: 95.5 µM (inactive)
SF-268
  GI50: > 100 µM (inactive)
HOP-92
  GI50: > 100 µM (inactive)
SK-MEL-28
  GI50: > 100 µM (inactive)
DU-145
  GI50: > 100 µM (inactive)
COLO 205
  GI50: > 100 µM (inactive)
T47D
  GI50: > 100 µM (inactive)
U-251
  GI50: > 100 µM (inactive)
SW-620
  GI50: > 100 µM (inactive)
NCI-H23
  GI50: > 100 µM (inactive)
HCT-116
  GI50: > 100 µM (inactive)
M14
  GI50: > 100 µM (inactive)
Malme-3M
  GI50: > 100 µM (inactive)
MCF7
  GI50: > 100 µM (inactive)
UACC-257
  GI50: 71.3 µM (inactive)
TK-10
  GI50: > 100 µM (inactive)
